Measured values from patent US20190053492A1, “SUBSTITUTED PYRIDINE COMPOUNDS AS PESTICIDES” (Bayer CropScience Aktiengesellschaft, priority 2016, published 2019).
Read-outs that look alike come from different tables or passages of the source.

Experiments:
[1] = log P by HPLC on reversed-phase column (C 18), EEC Directive 79/831 Annex V.A8; format: physicochemical; settings: 55° C.; for LOGP_HCOOH: log P (HCOOH); for chromatographic logP: reversed-phase HPLC column (C 18)
Experimental: Temperature: 55° C. […] Called log P (HCOOH) in the table. […] Called log P (neutral) in the table.

Ctenocephalides felis = Ctenocephalides felis oral test; format: in vivo; settings: application rate 100 ppm in citrated cattle blood, after 2 days, adult cat fleas
Experimental: Ctenocephalides felis—Oral Test Solvent: dimethyl sulphoxide To produce a suitable active ingredient formulation, 10 mg of active ingredient are mixed with 0.5 ml of dimethyl sulphoxide. Dilution with citrated cattle blood gives the desired concentration. About 20 unfed adult cat fleas (Ctenocephalides felis) are placed into a chamber which is closed at the top and bottom with gauze. A metal cylinder whose bottom end is closed with parafilm is placed onto the chamber. The cylinder contains the blood/active ingredient formulation, which can be imbibed by the fleas through the parafilm membrane. After 2 days, the kill in % is determined. 100% means that all of the fleas have been killed; 0% means that none of the fleas have been killed.

Lucilia cuprina = Lucilia cuprina test; format: in vivo; settings: application rate 100 ppm, after 2 days, L1 larvae
Experimental: Lucilia cuprina Test Solvent: dimethyl sulphoxide To produce a suitable active ingredient formulation, 10 mg of active ingredient are mixed with 0.5 ml of dimethyl sulphoxide, and the concentrate is diluted with water to the desired concentration. About 20 L1 larvae of the Australian sheep blowfly (Lucilia cuprina) are transferred into a test vessel containing minced horsemeat and the active ingredient formulation of the desired concentration. After 2 days, the kill in % is determined. 100% means that all the larvae have been killed; 0% means that no larvae have been killed.

Phaedon cochleariae = Phaedon cochleariae spray test; format: in vivo; settings: after 7 days, Chinese cabbage leaf discs
Procedure, shortened: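 Chinese cabbage leaf discs sprayed with compound in acetone/DMF and emulsifier-containing water, then infested with mustard beetle larvae once dry. Efficacy in % scored after 7 days (100% = all larvae killed, 0% = none).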

Spodoptera frugiperda = Spodoptera frugiperda spray test; format: in vivo; settings: after 7 days, maize leaf discs
Procedure, shortened: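 Maize leaf discs were sprayed with compound formulated in acetone/DMF and emulsifier-containing water, dried, then infested with Spodoptera frugiperda caterpillars. Percent kill was scored after 7 days, from 100% (all dead) to 0% (none dead).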

[2] = acidic range at pH 2.7, 0.1% aqueous formic acid and acetonitrile, HPLC on reversed-phase column (C 18)
[3] = log P, neutral range, HPLC on reversed-phase column (C 18)
[4] = acidic range pH 2.7, 0.1% aqueous formic acid and acetonitrile, reversed-phase column (C 18)
[5] = log P (neutral), HPLC reversed-phase column (C 18)

| LOGP_HCOOH [1, 2] | LOGP_NEUTRAL [1, 3] | LOGP_HCOOH [1, 4] | LOGP_NEUTRAL [1, 5] | chromatographic logP ([1]; pH 2.7, LC-MS acidic range, pH 2.7, 0.1% formic acid/acetonitrile, read-out: log P (acidic) / log P (HCOOH)) | chromatographic logP ([1]; pH 7.8, LC-MS neutral range, pH 7.8, ammonium hydrogencarbonate/acetonitrile, read-out: log P (neutral)) | Compound | efficacy (kill in %) (Ctenocephalides felis) [%] | efficacy (kill in %) (Lucilia cuprina) [%] | efficacy (beetle larvae killed) (Phaedon cochleariae; application rate 100 g/ha) [%] | efficacy (beetle larvae killed) (Phaedon cochleariae; application rate 500 g/ha) [%] | efficacy (caterpillars killed) (Spodoptera frugiperda; application rate 100 g/ha) [%] | efficacy (caterpillars killed) (Spodoptera frugiperda; application rate 500 g/ha) [%] | pest or weed control at 100 ppm (Ctenocephalides felis; Ctenocephalides felis, po, 48 h, read-out: efficacy (kill in %)) [%] | pest or weed control at 100 g/ha (Phaedon cochleariae; Phaedon cochleariae, foliar, 168 h, application rate 100 g/ha, read-out: efficacy (beetle larvae killed)) [%] | pest or weed control at 500 g/ha (Phaedon cochleariae; Phaedon cochleariae, foliar, 168 h, application rate 500 g/ha, read-out: efficacy (beetle larvae killed)) [%] | pest or weed control at 100 g/ha (Spodoptera frugiperda; Spodoptera frugiperda, foliar, 168 h, application rate 100 g/ha, read-out: efficacy (caterpillars killed)) [%] | pest or weed control at 500 g/ha (Spodoptera frugiperda; Spodoptera frugiperda, foliar, 168 h, application rate 500 g/ha, read-out: efficacy (caterpillars killed)) [%] |
| --- | --- | --- | --- | --- | --- | --- | --- | --- | --- | --- | --- | --- | --- | --- | --- | --- | --- |
| 4.40 | 4.34 |  |  |  |  | N#Cc1ccc(CNC(=O)c2cc(-c3ccc(N(C(F)(F)F)C(F)(F)F)cc3)cc(NC(=O)C3CC3)n2)cc1 [Example I-225] | 100 | 100 | 100 | 100 | 100 | 100 |  |  |  |  |  |
| 3.74 | 3.65 |  |  |  |  | N#Cc1ccc(CNC(=O)c2cc(-c3ccc(S(=O)(=O)C(F)(F)F)cc3)cc(NC(=O)C3CC3)n2)cc1F [Example I-120] | 100 | 100 | 100 | 100 | 100 | 100 |  |  |  |  |  |
|  | 4.15 | 4.31 |  |  |  | CC(C)C(=O)Nc1cc(-c2ccc(OC(F)(F)F)cc2)cc(C(=O)NCc2c(F)cc(C#N)cc2F)n1 [Example I-070] | 98 | 100 |  | 100 |  | 83 |  |  |  |  |  |
|  | 3.83 |  |  |  |  | O=C(NCCC(F)(F)F)c1cc(-c2ccc(OC(F)(F)F)cc2)cc(NC(=O)C2CC2)n1 [Example I-176] | 100 | 100 | 100 | 100 | 100 | 100 |  |  |  |  |  |
|  |  | 4.51 | 4.51 |  |  | N#Cc1cc(F)c(CNC(=O)c2cc(-c3ccc(C(F)(F)C(F)(F)F)c(F)c3)cc(NC(=O)C3CC3)n2)cc1F [Example I-249] | 100 | 100 | 100 | 100 | 100 | 100 |  |  |  |  |  |
|  | 3.58 | 3.67 |  |  |  | CN(Cc1ccc(C#N)cc1)C(=O)c1cc(-c2ccc(C(F)(F)F)cc2)cc(NC(=O)C2CC2)n1 [Example I-043] | 100 | 100 |  | 100 |  | 100 |  |  |  |  |  |
|  | 3.61 | 3.73 |  |  |  | N#Cc1ccc(CNC(=O)c2cc(-c3ccc(Br)cc3)cc(NC(=O)C3CC3)n2)cc1 [Example I-053] | 95 | 100 |  | 100 |  | 100 |  |  |  |  |  |
|  |  | 4.56 | 4.49 |  |  | CC(NC(=O)c1cc(-c2ccc(C(F)(F)C(F)(F)F)c(F)c2)cc(NC(=O)C2CC2)n1)c1ccc(C#N)cc1 (stereo not shown) [Example I-247] | 100 | 100 | 100 | 100 | 100 | 100 |  |  |  |  |  |
| 3.84 |  |  |  |  |  | O=C(NCC1CC1)c1cc(-c2ccc(OC(F)(F)F)cc2)cc(NC(=O)C2CC2)n1 [Example I-141] | 100 | 100 | 100 | 100 | 83 | 100 |  |  |  |  |  |
| 4.25 | 4.14 |  |  | 4.25 | 4.14 | N#Cc1ccc(CNC(=O)c2cc(-c3ccc(C(F)(F)C(F)(F)F)c(F)c3)cc(NC(=O)C3CC3)n2)cc1 [Example I-149, N-(4-Cyanobenzyl)-6-[(cyclopropylcarbonyl)amino]-4-[3-fluoro-4-(pentafluoroethyl)phenyl]pyridine-2-carboxamide] |  | 100 |  |  |  |  | 100 | 100 | 100 | 100 | 100 |
| 4.07 | 3.86 |  |  |  |  | N#Cc1ccc(CNC(=O)c2cc(-c3ccc(SC4CC4)cc3)cc(NC(=O)C3CC3)n2)cc1 [Example I-142] | 100 | 90 | 100 | 100 |  |  |  |  |  |  |  |
|  |  | 4.56 | 4.50 |  |  | N#Cc1c(F)cc(CNC(=O)c2cc(-c3ccc(C(F)(F)C(F)(F)F)c(F)c3)cc(NC(=O)C3CC3)n2)cc1F [Example I-250] | 100 | 95 | 100 | 100 | 100 | 100 |  |  |  |  |  |
|  | 2.83 | 2.94 |  |  |  | O=C(NC1CC1)c1cc(-c2ccc(OC(F)F)cc2)cc(NC(=O)C2CC2)n1 [Example I-030] | 100 | 90 | 100 | 100 | 83 | 100 |  |  |  |  |  |
|  | 3.47 | 4.59 |  |  |  | CCC(=O)Nc1cc(-c2ccc(C(F)(F)F)cc2)cc(C(=O)NCc2ccc(C#N)cc2)n1 [Example I-048] |  | 100 |  | 100 | 83 | 100 |  |  |  |  |  |
| 4.28 |  |  |  |  |  | CC(NC(=O)c1cc(-c2ccc(OC(F)(F)F)cc2)cc(NC(=O)C2CC2)n1)c1ccc([N+](=O)[O-])cc1 (stereo not shown) [Example I-228] | 100 | 100 |  | 100 | 83 | 100 |  |  |  |  |  |
| 4.00 |  |  |  |  |  | O=C(NC1CCC1)c1cc(-c2ccc(OC(F)(F)F)cc2)cc(NC(=O)C2CC2)n1 [Example I-133] | 100 | 100 |  |  | 100 | 100 |  |  |  |  |  |
| 3.86 | 3.82 |  |  |  |  | N#Cc1ccc(CNC(=O)c2cc(-c3ccc(C(F)(F)F)c(F)c3)cc(NC(=O)C3CC3)n2)cc1 [Example I-224] | 100 | 100 | 100 | 100 | 100 | 100 |  |  |  |  |  |
|  | 4.15 | 4.28 |  |  |  | O=C(NCc1ccc(-c2ncon2)cc1)c1cc(-c2ccc(SC(F)(F)F)cc2)cc(NC(=O)C2CC2)n1 [Example I-093] | 95 | 100 | 100 | 100 |  | 100 |  |  |  |  |  |
|  | 5.08 | 4.96 |  |  |  | O=C(Nc1ccc(Cl)cc1)c1cc(-c2ccc(C(F)(F)F)cc2)cc(NC(=O)C2CC2)n1 [Example I-021] |  | 85 |  | 100 |  | 100 |  |  |  |  |  |
|  | 4.34 | 4.48 |  |  |  | O=C(NCc1ccc(Cl)cc1)c1cc(-c2ccc(C(F)(F)F)cc2)cc(NC(=O)C2CC2)n1 [Example I-008] | 100 | 95 |  |  | 100 | 100 |  |  |  |  |  |
